ChEMBL document CHEMBL4665706, “Synthesis of a Unique Psammaplysin F Library and Functional Evaluation in Prostate Cancer Cells by Multiparametric Quantitative Single Cell Imaging” (J Nat Prod, 2020)
Activity calls are given as the source filed them. The rule behind the calls is not given here.

Key:
[1] = tested on: LNCaP; assay: Cell cycle arrest in human LNCaP cells assessed as accumulation of cells at M phase at 20 to 50 uM after 24 hrs by DAPI staining-based fluorescence assay; type: functional; conditions: dose microM 20-50, time 24.0 hrs
[2] = tested on: LNCaP; assay: Cell cycle arrest in human LNCaP cells assessed as accumulation of cells at G2 phase at 20 to 50 uM after 24 hrs by DAPI staining-based fluorescence assay; type: functional; conditions: dose microM 20-50, time 24.0 hrs
[3] = tested on: LNCaP; assay: Reduction in mitochondrial membrane potential in human LNCaP cells assessed as reduction in tubular structure at 20 to 50 uM after 24 hrs by Hoechst 33342/MTG staining-based by fluorescence assay; type: functional, cell-based; conditions: dose microM 20-50, time 24.0 hrs
[4] = tested on: LNCaP; assay: Cell cycle arrest in human LNCaP cells assessed as cell death at 20 to 50 uM after 24 hrs in presence of VINB by DAPI staining-based fluorescence assay; type: functional; conditions: dose microM 20-50, time 24.0 hrs
[5] = tested on: LNCaP; assay: Cell cycle arrest in human LNCaP cells assessed as cell death at 20 to 50 uM after 24 hrs in presence of 6AA by DAPI staining-based fluorescence assay; type: functional; conditions: dose microM 20-50, time 24.0 hrs
[6] = tested on: LNCaP; assay: Reduction in mitochondrial membrane potential in human LNCaP cells assessed as mitochondrial morphological change at 50 uM after 24 hrs by Hoechst 33342/MTG staining-based by fluorescence assay; type: functional, cell-based

Compound	Activity [1]	Activity [2]	Activity [3]	Activity [4]	Activity [5]	Activity [6]
COC1=C(Br)C[C@@]2(OC=C1Br)ON=C(C(=O)NCCCOc1c(Br)cc(CCN(C)C(=O)NCCc3ccc(F)cc3)cc1Br)[C@H]2O	Active	Active	–	–	–	–
C=CCNC(=O)N(C)CCc1cc(Br)c(OCCCNC(=O)C2=NO[C@]3(CC(Br)=C(OC)C(Br)=CO3)[C@@H]2O)c(Br)c1	Active	Active	Active	–	–	–
COC1=C(Br)C[C@@]2(OC=C1Br)ON=C(C(=O)NCCCOc1c(Br)cc(CCN(C)C(=O)Nc3ccccc3)cc1Br)[C@H]2OC(=O)c1ccccc1	inactive	inactive	–	–	–	–
CCCCNC(=O)N(C)CCc1cc(Br)c(OCCCNC(=O)C2=NO[C@]3(CC(Br)=C(OC)C(Br)=CO3)[C@@H]2O)c(Br)c1	Active	Active	Active	Active	Active	–
COC1=C(Br)C[C@@]2(OC=C1Br)ON=C(C(=O)NCCCOc1c(Br)cc(CCN(C)C(=O)C(C)(C)C)cc1Br)[C@H]2O	Active	Active	Active	Active	Active	–
COC1=C(Br)C[C@@]2(OC=C1Br)ON=C(C(=O)NCCCOc1c(Br)cc(CCN(C)C(=O)NC3CCCC3)cc1Br)[C@H]2O	Active	Active	–	–	–	–
COC1=C(Br)C[C@@]2(OC=C1Br)ON=C(C(=O)NCCCOc1c(Br)cc(CCN(C)C(=O)C(C)(C)C)cc1Br)[C@H]2OC(=O)C(C)(C)C	Active	Active	Active	–	–	–
CNCCc1cc(Br)c(OCCCNC(=O)C2=NO[C@]3(CC(Br)=C(OC)C(Br)=CO3)[C@@H]2O)c(Br)c1	Active	Active	Active	–	–	Active
COC1=C(Br)C[C@@]2(OC=C1Br)ON=C(C(=O)NCCCOc1c(Br)cc(CCN(C)C(=O)Nc3ccc(C(C)=O)cc3)cc1Br)[C@H]2O	Active	Active	–	–	–	–
COC1=C(Br)C[C@@]2(OC=C1Br)ON=C(C(=O)NCCCOc1c(Br)cc(CCN(C)C(=O)NCc3ccc(OC)cc3)cc1Br)[C@H]2O	inactive	inactive	–	–	–	–
COC1=C(Br)C[C@@]2(OC=C1Br)ON=C(C(=O)NCCCOc1c(Br)cc(CCN(C)C(=O)Nc3cccc(OC)c3OC)cc1Br)[C@H]2O	inactive	inactive	–	–	–	–
